Test systems include 786-0 renal; XF 498 CNS; SNB-78 CNS; HOP-18 NSCLC; A498 renal; M19-MEL melanoma; DLD-1 colon; IGROV1 ovarian; NCI-H460 lung; LXFL 529 NSCLC; DMS 114 small cell lung; DMS 273 small cell lung; KM20L2 colon; RXF-631 renal.
What all share (test): NCI-60 cell line screen, 48 h

Structures are written as SMILES.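 A five-concentration, 48-hour dose response in 96-well plates underlies each endpoint, interpolated linearly between surrounding concentrations. GI50 marks 50% less growth. The concentration for full growth arrest is given as TGI.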 Some results are limits rather than exact numbers.

With `COc1ccc2c(c1)C(=O)Cc1ccccc1CC2`, the TGI in the test on 786-0 renal, in the test with XF 498 CNS, in the test with SNB-78 CNS, with HOP-18 NSCLC, in the test on A498 renal and with M19-MEL melanoma was above 100 µM in each case. Also, the TGI in the test on DLD-1 colon, in the test with IGROV1 ovarian, in the test on NCI-H460 lung, in the test on LXFL 529 NSCLC, in the test with DMS 114 small cell lung and with DMS 273 small cell lung was above 100 µM throughout. In addition, the TGI in the test with KM20L2 colon was above 100 µM.
On to `O=C1c2ccccc2C(=O)c2c1cc(S(=O)(=O)O)c(O)c2O`, for which the TGI was above 100 µM in the test with 786-0 renal; 32.6 µM in the test with XF 498 CNS; above 100 µM in the test with SNB-78 CNS; above 100 µM with A498 renal; above 100 µM in the test on M19-MEL melanoma; above 100 µM with DLD-1 colon. The TGI with IGROV1 ovarian, in the test on NCI-H460 lung, in the test on LXFL 529 NSCLC, in the test with DMS 114 small cell lung and in the test on RXF-631 renal was above 100 µM each time.
In the case of `[Cl-].[Rh+3].c1cnc2c(c1)ccc1cccnc12.c1cnc2c(c1)ccc1cccnc12.c1cnc2c(c1)ccc1cccnc12`, the TGI in the test on 786-0 renal, with SNB-78 CNS, in the test on IGROV1 ovarian, in the test on NCI-H460 lung, with LXFL 529 NSCLC and in the test with KM20L2 colon was above 100 µM throughout. Also, the GI50 in the test with SNB-78 CNS, in the test with LXFL 529 NSCLC and in the test with KM20L2 colon was above 100 µM throughout.
For `c1nc(N2CC2)c2cnn(C3CCCCO3)c2n1` (stereo not given), the TGI in the test on 786-0 renal, in the test on XF 498 CNS, with SNB-78 CNS, in the test on A498 renal, in the test on M19-MEL melanoma and in the test on DLD-1 colon was above 100 µM each time. In addition, the TGI with IGROV1 ovarian, in the test on NCI-H460 lung, with LXFL 529 NSCLC, in the test with DMS 114 small cell lung, in the test on DMS 273 small cell lung and in the test with KM20L2 colon was above 100 µM each time.
`O/N=C/c1ncccc1C1OCCO1`: the TGI with 786-0 renal, in the test on XF 498 CNS, in the test with SNB-78 CNS, with HOP-18 NSCLC, in the test with M19-MEL melanoma and in the test on DLD-1 colon was above 100 µM throughout. In addition, the TGI in the test on IGROV1 ovarian, with NCI-H460 lung, in the test on LXFL 529 NSCLC, with DMS 114 small cell lung, with DMS 273 small cell lung and in the test with KM20L2 colon was above 100 µM throughout.
Consider `COC(=O)c1cc2c(cc1CC1Cc3cc4c(cc3C1=O)CCC4)CCC2` (stereo not given), for which the TGI in the test with 786-0 renal, in the test on A498 renal, in the test with IGROV1 ovarian and in the test with NCI-H460 lung was above 100 µM in each case.
Turning to `CC(C)(C)OC(=O)CN1C(=O)CC1CC(=O)c1ccccc1` (stereo not given), the TGI in the test with 786-0 renal is 32.9 µM; in the test with A498 renal, 64 µM; in the test with IGROV1 ovarian, 32.2 µM; with NCI-H460 lung, 77.1 µM.
On the same counts, the results for `COc1ccccc1N(CN1C(=O)CCC1C(=O)O)C(C)=O` (stereo not given) are above 100 µM, above 100 µM, above 100 µM and above 100 µM.
For `COC1(C)CP(=O)(OC(C)C)CC(C)=C1Cl` (stereo not given) the same measures were 60 µM, 37.6 µM, 29.6 µM and 66.3 µM.
Regarding `O=S(=O)(O)C1=C2Sc3ccccc3N=C2c2ccccc2C1`, the TGI in the test on 786-0 renal is 31.4 µM; with XF 498 CNS, 31.8 µM; in the test on SNB-78 CNS, 34 µM; in the test with HOP-18 NSCLC, 25.2 µM; in the test on A498 renal, 32.8 µM; in the test with DLD-1 colon, 32.5 µM. Moreover, the TGI with IGROV1 ovarian worked out at 28.1 µM; in the test with NCI-H460 lung it was 40 µM; in the test with LXFL 529 NSCLC, 24.6 µM; with DMS 114 small cell lung, 22.2 µM; with DMS 273 small cell lung, 29.5 µM; in the test with RXF-631 renal it was 29.5 µM. This molecule showed a TGI with KM20L2 colon of 34.3 µM.
In the case of `O=c1[nH]c(=O)n(CCOc2ccccc2)cc1Nc1ccccc1`, the TGI in the test with 786-0 renal, in the test with A498 renal, in the test with IGROV1 ovarian and in the test with NCI-H460 lung was above 100 µM in each case.
`O=C(O)COCC(=O)N(CCOCCN(Cc1ccccc1)C(=O)COCC(=O)O)Cc1ccccc1`: the TGI in the test with 786-0 renal, in the test with A498 renal, in the test with IGROV1 ovarian and in the test with NCI-H460 lung was above 100 µM in each case.
Consider `CCCCCCCCCCCCN(CC(O)C(O)C(OC1OC(CO)C(O)C(O)C1O)C(O)CO)C(=O)CCCCCCCCCCC` (stereo not given), for which the TGI with 786-0 renal turned out to be 33.8 µM; with A498 renal, 41.8 µM; in the test on IGROV1 ovarian, 35.8 µM; in the test with NCI-H460 lung, 39.7 µM.
As to `Cc1cccc(C(C)C)c1NC(=O)/C(Cc1c([N+](=O)[O-])cccc1[N+](=O)[O-])=N/NC(=O)CC#N`, the TGI in the test on 786-0 renal, with HOP-18 NSCLC, in the test on A498 renal, in the test on M19-MEL melanoma, with DLD-1 colon and with IGROV1 ovarian was above 100 µM throughout. Further, the TGI in the test with NCI-H460 lung, in the test with LXFL 529 NSCLC, in the test on DMS 114 small cell lung, with DMS 273 small cell lung, in the test on RXF-631 renal and with KM20L2 colon was above 100 µM throughout.
As for `NC(=S)N1N=C2c3ccccc3CC[C@@H]2[C@@H]1c1ccccc1`, the TGI is 50.5 µM in the test on 786-0 renal; above 82 µM with SNB-78 CNS; above 100 µM in the test with HOP-18 NSCLC; above 83.8 µM in the test on A498 renal; 47.2 µM in the test on M19-MEL melanoma; above 86.4 µM in the test with DLD-1 colon. Also, the TGI in the test on IGROV1 ovarian was above 80.3 µM; with NCI-H460 lung, above 42.2 µM; in the test on LXFL 529 NSCLC, 97.6 µM; in the test on DMS 114 small cell lung, 8.01 µM; with DMS 273 small cell lung, 20.7 µM; in the test with RXF-631 renal, above 100 µM. In the test with KM20L2 colon, this molecule showed a TGI of 16.3 µM.
Regarding `CCOC(=O)c1oc2cc3c(c4c2c1-c1ccccc1N4C)C=CC(C)(C)O3`, the TGI in the test on 786-0 renal is above 53 µM; in the test with A498 renal, above 71.4 µM; in the test on IGROV1 ovarian it was 46.5 µM; with NCI-H460 lung, above 100 µM.
On the same counts, the results for `Nc1cccnc1NCC1(CO)CCCC1` are above 100 µM, above 100 µM, above 100 µM and above 100 µM.
On the same counts, the results for `N#CC12CNCC1CN=N2` (stereo not given) are above 100 µM, above 100 µM, above 100 µM and above 100 µM.
For `O=c1[nH]nc(-c2ccccc2)n1-c1ccncc1` the same measures were above 100 µM, above 100 µM, above 100 µM and above 100 µM.
For the molecule `C=C1[C@H](OC(C)=O)[C@H]2[C@@H](OC(C)=O)[C@@H](C)C[C@]2(C)C(=O)[C@H](C)/C=C/C(C)(C)C(=O)[C@H](OCC(C)C)[C@H]1OC(C)=O`, the TGI with 786-0 renal, in the test with A498 renal, with IGROV1 ovarian and with NCI-H460 lung was above 25 µM in each case.
Turning to `CN(C)/N=C(/CC(O)(C(F)(F)F)C(F)(F)F)c1ccc([N+](=O)[O-])cc1`, the TGI in the test with 786-0 renal, in the test with A498 renal, with IGROV1 ovarian and with NCI-H460 lung was above 100 µM each time.
In the case of `CC(C)(C)/C(=N\Nc1nc2ccccc2[nH]1)c1ccccn1`, the TGI in the test with 786-0 renal, in the test with A498 renal, in the test on IGROV1 ovarian and in the test on NCI-H460 lung was above 100 µM throughout.
As for `O=C1N[C@H]2c3c(Cl)sc(Cl)c3[C@@H](O)[C@H]2O1`, the TGI with 786-0 renal, in the test on A498 renal, with IGROV1 ovarian and with NCI-H460 lung was above 100 µM each time.

For the origin of these results see PubChem BioAssay (NCI).
